Measurements: patent EP0353668A2, “Process for the preparation of N,N-bis(alkoxyalkyl) diamides of pyridine-2,4-dicarboxylic acid” (HOECHST AKTIENGESELLSCHAFT, priority 1988, dated 1990)

Test: in vivo
Design: species or system Wistarratten
Protocol: Es wurde festgestellt, daß die Verbindungen der Formel I außergewöhnlich gute enterale Resorbierbarkeiten aufweisen. Die Resorbierbarkeit wurde an Wistarratten untersucht, denen N,N′-Bis-(2-methoxy ethyl)pyridin-2,4-dicarbonsäureamid intragastral verabreicht wurde. Der Serumspiegel sank in den ersten Stunden nach Verabreichung der Substanz ab und ereichte nach ca. 5 Stunden ein nur noch leicht abfallendes Platteau.
Weibliche Wistarratten von ca. 150 g Körpergewicht erhalten 50 mg/kg N,N′-Bis(2-methoxyethyl)pyridin-2,4-dicarbonsäurediamid mittels Schlundsonde intragastral verabreicht. Es werden nach 0; 0,25; 0,5; 1; 3; 4; 5; 6; 8 und 14 Stunden jeweils 4 Ratten narkotisiert und über die Vena Cava entblutet. Das Blut wird sofort zentrifugiert und N,N′-Bis(2-methoxyethyl)pyridin-2,4-dicarbonsäurediamid mit Ether aus dem Serum extrahiert. Nach Verdampfen des Ethers wird der Rückstand in […] Fliessmittel aufgenommen. Das Fliessmittel besteht aus 0,05 M Phosphorsäure und Acetonitril (4:1). Von dieser Probe werden 50 µl in eine HPLC-Säule injiziert. Die Detektion erfolgt bei UV 200 nm und einer Retentionszeit von 2,2 min. Die Ergebnisse sind in der Tabelle 1 und der Figur 1 dokumentiert. Tabelle 1

COCCNC(=O)c1ccnc(C(=O)NCCOC)c1 [N,N′-Bis(2-methoxyethyl)pyridin-2,4-dicarbonsäurediamid]
Zeit bis der Serumspiegel ein nur noch leicht abfallendes Platteau erreichte: ca. 5 Stunden
enterale Resorbierbarkeit: gute Resorbierbarkeit
concentration at 0.25 h (rat, po, 50 mg/kg): 38700 ng/mL
concentration at 0.5 h (rat, po, 50 mg/kg): 32400 ng/mL
concentration at 1 h (rat, po, 50 mg/kg): 15600 ng/mL
concentration at 3 h (rat, po, 50 mg/kg): 700 ng/mL
concentration at 4 h (rat, po, 50 mg/kg): 3300 ng/mL
concentration at 5 h (rat, po, 50 mg/kg): 500 ng/mL
concentration at 6 h (rat, po, 50 mg/kg): 600 ng/mL
concentration at 8 h (rat, po, 50 mg/kg): 500 ng/mL
concentration at 14 h (rat, po, 50 mg/kg): 300 ng/mL
